Here are results for 38 compounds from the Deep4Chem optical property database.

One series in a line: solvent given as SMILES. The conditions noted are these: in CO.
For the compound `C[N+]1=C(/C=C/C2=C3Oc4c(cc5c6c4CCCN6CCC5)C(c4ccccc4C(=O)O)=C3CCC2)C(C)(C)c2c1ccc1ccccc21`, the emission maximum is 768 nm.

In the case of `O=CN1N=C(c2ccc(Br)cc2)C[C@@H]1c1ccccc1`, the emission maximum was 350 nm.

Compound `CC1=N/C(=C\c2ccccc2N(C)C)C(=O)N1C` displayed an emission maximum of 522 nm.

The compound `CN(C)c1ccc(/C=C/C=C/C2=NC3C(=O)NC(N)=NC3N2[C@H]2C[C@H](O)[C@@H](CO)O2)cc1` (stereo not given in full) returned an emission maximum of 438 nm.

With `CN(C)c1ccc(C#Cc2ccc(C#N)cc2)cc1`, the emission maximum is 547.02 nm.

Compound `CC1(C)C(/C=C/C2=C(Cl)C(=C/C=C3/N(CCCS(=O)(=O)[O-])c4ccccc4C3(C)C)/CCC2)=[N+](CCCS(=O)(=O)[O-])c2ccccc21` had an emission maximum of 802 nm.

Still in this series, the particulars now being: in CS(C)=O.
`C(=C\c1ccncn1)/c1ccc(-c2ccc(N(c3ccccc3)c3ccccc3)cc2)cc1`: the emission maximum came out at 609 nm.

`CCN(CC)c1ccc2c(c1)oc(=O)c1c(=O)oc3c(C)c4oc(=O)c5c(=O)oc6cc(N(CC)CC)ccc6c5c4cc3c12` yielded an emission maximum of 558 nm.

Compound `O=CN1N=C(c2ccc(Br)cc2)C[C@@H]1c1ccccc1` returned an emission maximum of 356 nm.

As to `C(=C\c1ccncn1)/c1ccc(N(c2ccccc2)c2ccccc2)cc1`, the emission maximum came out at 550 nm.

In turn, `CC1=N/C(=C\c2ccccc2N(C)C)C(=O)N1C` had an emission maximum of 552 nm.

For `CCOC(=O)C1=C(N)n2c(=O)c3ccccc3c(=O)n2C1c1ccc(C)cc1` (stereo not given), the emission maximum was 517 nm.

As for `COC(=O)c1ccc(-c2ccc(-c3nnc(-c4ccc(-c5nnc(-c6ccc(-c7ccc(C(=O)OC)cc7)s6)o5)cc4)o3)s2)cc1`, the emission maximum was found to be 420 nm.

As to `CN(C)c1ccc(C#Cc2ccc(C#N)cc2)cc1`, the emission maximum is 573 nm.

The series is the same for the next values; noted with them: in Cc1ccccc1.
In turn, `C(#Cc1nc2ccccc2s1)c1ccc(N(c2ccc(C#Cc3nc4ccccc4s3)cc2)c2ccc(C#Cc3nc4ccccc4s3)cc2)cc1` had an emission maximum of 434 nm.

The compound `O=CN1N=C(c2ccc(Br)cc2)C[C@@H]1c1ccccc1` came in with an emission maximum of 349 nm.

Take `CC1(C)c2ccccc2N(c2ccc(-c3nc(C#N)c(C#N)nc3-c3ccc(N4c5ccccc5C(C)(C)c5ccccc54)cc3)cc2)c2ccccc21`: the emission maximum amounted to 620 nm.

In turn, `Cc1ccccc1[B-]1(c2ccccc2C)n2nc(C(F)(F)F)cc2-c2c3ccccc3cc[n+]21` had an emission maximum of 414 nm.

In turn, `c1ccc(-c2nc(-c3ccc(-c4ccc(-n5c6ccccc6c6ccccc65)cc4)cn3)oc2-c2ccccc2)cc1` registered an emission maximum of 404 nm.

`COC(=O)c1ccc(-c2ccc(-c3nnc(-c4ccc(-c5nnc(-c6ccc(-c7ccc(C(=O)OC)cc7)s6)o5)cc4)o3)s2)cc1` had an emission maximum of 399 nm.

On to `CN(C)c1ccc(C#Cc2ccc(C#N)cc2)cc1`, for which the emission maximum was found to be 427 nm.

The compound `O=[N+]([O-])c1ccc(C2=Nc3sc(-c4ccccc4)n[n+]3[B-](F)(F)O2)cc1` showed an emission maximum of 409 nm.

Staying with this series, now noted: in ClC(Cl)(Cl)Cl.
As to `O=CN1N=C(c2ccc(Br)cc2)C[C@@H]1c1ccccc1`, the emission maximum is 351 nm.

The same series, now with this note: in ClC(Cl)Cl.
`C[N+]1=C(/C=C/C2=C3Oc4c(cc5c6c4CCCN6CCC5)C(c4ccccc4C(=O)O)=C3CCC2)C(C)(C)c2c1ccc1ccccc21` registered an emission maximum of 775 nm.

Take `COc1ccc(-c2oc3cccc4c5c(-c6ccc(OC)c(OC)c6)/c(=N/S(=O)(=O)C(F)(F)F)oc6cccc(c2c34)c65)cc1OC`: the emission maximum was 613 nm.

Regarding `F[B-]1(F)n2cccc2C(c2ccccc2)=C2C=CC(c3ccc(OC4=[N+]5C(=C(c6ccccc6)c6cc(Br)c(Br)n6[B-]5(F)F)C=C4Br)cc3)=[N+]21`, the emission maximum amounted to 574 nm.

Compound `F[B-]1(F)n2c(cc3oc4ccccc4c32)C(c2ccc(I)cc2)=C2C=c3oc4ccccc4c3=[N+]21` showed an emission maximum of 647 nm.

As for `COC(=O)c1ccc(-c2ccc(-c3nnc(-c4ccc(-c5nnc(-c6ccc(-c7ccc(C(=O)OC)cc7)s6)o5)cc4)o3)s2)cc1`, the emission maximum is listed as 397 nm.

The compound `N#Cc1c(C#N)c2cc(Cl)c(Cl)cc2c2cc(Cl)c(Cl)cc12` displayed an emission maximum of 412 nm.

As for `Cc1c2c(c(C)c3ccccc13)C1=CC3Nc4ccccc4NC3C=C12` (stereo not given), the emission maximum was 502 nm.

Still in this series, the particulars now being: in ClCCl.
As to `C1=C2C3=C(C4=[N+]2[B-]2(Oc5ccccc54)Oc4ccccc4-c4c5c(c1n42)C1CCC5CC1)C1CCC3CC1` (stereo not given), the emission maximum came to 645 nm.

For the compound `C(=C\c1ccncn1)/c1ccc(-c2ccc(N(c3ccccc3)c3ccccc3)cc2)cc1`, the emission maximum is on record as 563 nm.

`CCN(CC)c1ccc2c(c1)oc(=O)c1c(=O)oc3c(C)c4oc(=O)c5c(=O)oc6cc(N(CC)CC)ccc6c5c4cc3c12` gave an emission maximum of 542 nm.

`C(=C\c1ccncn1)/c1ccc(N(c2ccccc2)c2ccccc2)cc1`: the emission maximum came out at 526 nm.

As to `C(=C\c1cc(-c2ccccc2)c(/C=C/c2ccc(N(c3ccccc3)c3ccccc3)cc2)cc1-c1ccccc1)/c1ccc(N(c2ccccc2)c2ccccc2)cc1`, the emission maximum is given as 495 nm.

As to `CCn1c2ccccc2c2cccc(N(c3ccccc3)c3ccccc3)c21`, the emission maximum is listed as 423 nm.

For `CC1=N/C(=C\c2ccccc2N(C)C)C(=O)N1C`, the emission maximum was 535 nm.

As to `CC1=C(c2ccccc2)Oc2cc3nc4ccccc4nc3c3cccc1c23`, the emission maximum was found to be 554 nm.

Compound `Cc1cc(-c2ccc(C(C)(C)C)cc2)c2nsnc2c1-c1ccc(C(C)(C)C)cc1` came in with an emission maximum of 489 nm.

The compound `c1ccc(-c2cc3cc4ccccc4cc3p2-c2ccccc2)cc1` (stereo not given) gave an emission maximum of 429 nm.

Compound `Cc1ccccc1[B-]1(c2ccccc2C)n2nc(C(F)(F)F)cc2-c2c3ccccc3cc[n+]21` gave an emission maximum of 412 nm.

In turn, `CN(C)c1ccc(C2=Nc3ccc4c(C(F)(F)F)cc(C(F)(F)F)nc4[n+]3[B-](F)(F)O2)cc1` showed an emission maximum of 642 nm.

`N#Cc1ccc(-n2c(-c3ccc(-c4ccc(-c5nc6c7ccccc7c7ccccc7c6n5-c5ccc(C#N)c6ccccc56)cc4)cc3)nc3c4ccccc4c4ccccc4c32)c2ccccc12`: the emission maximum is reported as 430 nm.

`C(=C\c1ccncn1)/c1ccc(-c2ccco2)cc1` showed an emission maximum of 401 nm.

Consider `CCCc1ccc(C#Cc2cc(C#Cc3ccc(N(C)C)cc3)c3ccc4c(C#Cc5ccc(N(C)C)cc5)cc(C#Cc5ccc(N(C)C)cc5)c5ccc2c3c54)cc1`, for which the emission maximum was found to be 603 nm.

Compound `COc1ccc(-c2cnc3cccc(-c4ccccc4)n23)cc1` showed an emission maximum of 484 nm.

In turn, `N#Cc1cc(/C=C/c2ccc(/C=C/c3ccc(N(c4ccccc4)c4ccccc4)cc3)c(C#N)c2)ccc1/C=C/c1ccc(N(c2ccccc2)c2ccccc2)cc1` yielded an emission maximum of 577 nm.

`Cc1ccccc1-c1c2cccc3c(-c4ccc(C(C)(C)C)cc4)cc4c(-c5ccccc5C)c5cccc6c(-c7ccc(C(C)(C)C)cc7)cc1c(c65)c4c32` displayed an emission maximum of 455 nm.

Consider `COc1ccc(-c2ccc(/C=C/c3cnc4ccccc4n3)cc2)cc1`, for which the emission maximum came to 485 nm.

Consider `CC(=O)c1c(N[C@@H](Cc2ccc(O)cc2)C(=O)O)c2ccc(N(C)C)cc2oc1=O`, for which the emission maximum is recorded as 415 nm.

The series is the same for the next values; noted with them: in O.
Compound `CC1=N/C(=C\c2ccccc2N(C)C)C(=O)N1C` gave an emission maximum of 426 nm.

On to `Nc1cc([NH3+])cc(-c2nc3ccccc3s2)c1`, for which the emission maximum was determined as 493.5 nm.

The series is the same for the next values; noted with them: in c1cc(-c2cccc(-n3c4ccccc4c4ccccc43)c2)cc(-n2c3ccccc3c3ccccc32)c1.
`CC1(C)c2ccccc2N(c2ccc(-c3nc(C#N)c(C#N)nc3-c3ccc(N4c5ccccc5C(C)(C)c5ccccc54)cc3)cc2)c2ccccc21` returned an emission maximum of 570 nm.

As to `c1ccc(-c2nc(-c3ccccc3)nc(-c3ccc(-c4ccc5c(c4)C4(c6ccccc6-c6ccccc64)c4cc(-c6ccc(-c7nc(-c8ccccc8)nc(-c8ccccc8)n7)cc6)ccc4N5c4ccccc4)cc3)n2)cc1`, the emission maximum was determined as 469 nm.

The same series, now with this note: in c1ccccc1.
The compound `c1ccc(-c2nc(-c3ccc(-c4ccc(-n5c6ccccc6c6ccccc65)cc4)cn3)oc2-c2ccccc2)cc1` displayed an emission maximum of 405 nm.
